Experimental data from US10227357B2, “Compounds and methods for kinase modulation, and indications therefor” (Plexxikon Inc., priority 2012, dated 2019).

Key:
[1] = biological target: T1, c-kit mutant D816V (Homo sapiens, UniProt P10721, D816V/DEL694-753); assay: c-Kit mutant D816V biochemical assay, AlphaScreen; conditions: c-kit D816V biochemical inhibitory activity; read-out: Biochemical activity (IC50 μM) Kit D816V
T1 construct: residues 551-934, kinase insertion domain residues 694-753 deleted; 6x-histidine (N); made in house; host or cells: E. coli Arctic Express (DE3) RIL (Stratagene)
T1 sequence (P10721 with tags, fused parts or gaps DEL694-753/D816V): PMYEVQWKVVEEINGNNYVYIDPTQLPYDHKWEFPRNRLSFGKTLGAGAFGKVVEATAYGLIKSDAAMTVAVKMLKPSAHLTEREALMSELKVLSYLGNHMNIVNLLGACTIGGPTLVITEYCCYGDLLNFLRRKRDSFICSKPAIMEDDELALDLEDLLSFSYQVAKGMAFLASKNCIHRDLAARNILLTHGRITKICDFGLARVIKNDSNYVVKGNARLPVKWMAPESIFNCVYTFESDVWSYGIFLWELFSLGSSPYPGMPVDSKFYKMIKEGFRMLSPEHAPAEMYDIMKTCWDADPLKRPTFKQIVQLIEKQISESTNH
Summary of the method: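 Purified His-tagged c-Kit D816V (E. coli-expressed) assayed in 25 mM HEPES pH 7.2 with Mg/Mn, 5% DMSO and 10 μM ATP, 30 min at room temperature, 8-point 1:3 dilutions. Phosphorylation detected by AlphaScreen with streptavidin donor and PY20 acceptor beads; IC50 from signal versus concentration.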

[2] = biological target: T2, c-kit kinase (Homo sapiens, UniProt P10721); assay: c-Kit biochemical assay, AlphaScreen, 10 μM ATP; conditions: c-kit biochemical inhibitory activity; read-out: Biochemical activity (IC50 μM) Kit
T2 construct: The c-kit (or kinase domain thereof) is an active kinase in AlphaScreen; poly-Histidine tag (in-house protein only) (cleaved yes); host or cells: E. coli BL21(DE3)RIL, co-expressed with PTP1B
T2 sequence (P10721 26-976): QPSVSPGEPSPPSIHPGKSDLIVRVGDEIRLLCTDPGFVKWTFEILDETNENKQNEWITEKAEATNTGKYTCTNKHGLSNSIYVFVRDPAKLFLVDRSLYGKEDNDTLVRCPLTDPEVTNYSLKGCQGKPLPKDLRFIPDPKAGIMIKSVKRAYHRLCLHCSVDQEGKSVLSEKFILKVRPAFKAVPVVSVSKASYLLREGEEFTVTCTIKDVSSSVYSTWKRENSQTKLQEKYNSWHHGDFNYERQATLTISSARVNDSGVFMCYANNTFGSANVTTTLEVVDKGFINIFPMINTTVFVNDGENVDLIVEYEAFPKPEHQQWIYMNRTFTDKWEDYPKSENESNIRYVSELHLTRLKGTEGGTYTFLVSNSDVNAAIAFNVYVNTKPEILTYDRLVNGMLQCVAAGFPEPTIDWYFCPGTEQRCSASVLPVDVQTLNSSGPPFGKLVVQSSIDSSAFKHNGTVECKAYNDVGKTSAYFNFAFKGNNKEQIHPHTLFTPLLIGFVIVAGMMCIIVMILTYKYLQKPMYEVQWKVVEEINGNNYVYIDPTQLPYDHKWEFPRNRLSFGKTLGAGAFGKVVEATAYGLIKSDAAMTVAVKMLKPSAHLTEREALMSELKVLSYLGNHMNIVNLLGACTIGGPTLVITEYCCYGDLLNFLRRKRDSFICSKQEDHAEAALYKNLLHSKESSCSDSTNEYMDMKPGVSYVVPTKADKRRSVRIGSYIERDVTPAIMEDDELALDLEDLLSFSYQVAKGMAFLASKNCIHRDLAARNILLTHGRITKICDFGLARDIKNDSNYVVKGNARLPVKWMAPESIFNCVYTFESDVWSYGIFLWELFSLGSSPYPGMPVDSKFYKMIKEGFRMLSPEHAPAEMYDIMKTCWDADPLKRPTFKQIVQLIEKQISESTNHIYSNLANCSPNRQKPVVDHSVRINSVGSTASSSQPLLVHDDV
Summary of the method: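 His-tagged c-Kit expressed in E. coli with co-expressed PTP1B (dephosphorylated), tag removed; 0.1 ng per reaction with biotinylated-peptide substrate in 50 mM HEPES pH 7.2, 5 mM MgCl2, 5 mM MnCl2, 5% DMSO, 10 μM ATP, 1 h at room temperature. Phosphorylation detected by AlphaScreen (streptavidin donor, PY20 acceptor beads); IC50 from 8-point 1:3 dilution series.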

Row | Structure (SMILES) | IC50 [1] [µM] | IC50 [2] [µM]
1 | Cc1nc(-c2cccc(NC(=O)N3CCN(c4ncnc5[nH]ccc45)CC3)c2)no1 [P-0151, N-[3-(5-methyl-1,2,4-oxadiazol-3-yl)phenyl]-4-(7H-pyrrolo[2,3-d]pyrimidin-4-yl)piperazine-1-carboxamide] | 10 to 200 | 10 to 200
2 | O=C(NCc1ccccc1Cl)N1CCN(c2ncnc3[nH]c(-c4ccc(F)cc4)cc23)CC1 [P-0154, N-[(2-chlorophenyl)methyl]-4-[6-(4-fluorophenyl)-7H-pyrrolo[2,3-d]pyrimidin-4-yl]piperazine-1-carboxamide] | 1 to 10 | 10 to 200
3 | C[C@H](NC(=O)N1CCN(c2ncnc3[nH]c(-c4ccc(F)cc4)cc23)CC1)c1cccc2ccccc12 [P-0155, 4-[6-(4-fluorophenyl)-7H-pyrrolo[2,3-d]pyrimidin-4-yl]-N-[(1S)-1-(1-naphthyl)ethyl]piperazine-1-carboxamide] | 0.0001 to 1 | 1 to 10
4 | COc1ccc(CNC(=O)N2CCN(c3ncnc4[nH]c(-c5ccc(F)cc5)cc34)CC2)cc1 [P-0157, 4-[6-(4-fluorophenyl)-7H-pyrrolo[2,3-d]pyrimidin-4-yl]-N-[(4-methoxyphenyl)methyl]piperazine-1-carboxamide] | 10 to 200 | 10 to 200
5 | O=C(Nc1ccc(F)c(Cl)c1)N1CCN(c2ncnc3[nH]ccc23)CC1 [P-0165, N-(3-chloro-4-fluoro-phenyl)-4-(7H-pyrrolo[2,3-d]pyrimidin-4-yl)piperazine-1-carboxamide] | 10 to 200 | 1 to 10
6 | O=C(Nc1cccc(C(F)(F)F)c1)N1CCN(c2ncnc3[nH]ccc23)CC1 [P-0167, 4-(7H-pyrrolo[2,3-d]pyrimidin-4-yl)-N-[3-(trifluoromethyl)phenyl]piperazine-1-carboxamide] | 10 to 200 | 10 to 200
7 | O=C(Nc1cccc(Cl)c1)N1CCN(c2ncnc3[nH]ccc23)CC1 [P-0168, N-(3-chlorophenyl)-4-(7H-pyrrolo[2,3-d]pyrimidin-4-yl)piperazine-1-carboxamide] | 10 to 200 | 10 to 200
8 | COc1ccc(CCNC(=O)N2CCN(c3ncnc4[nH]ccc34)CC2)cc1 [P-0169, N-[2-(4-methoxyphenyl)ethyl]-4-(7H-pyrrolo[2,3-d]pyrimidin-4-yl)piperazine-1-carboxamide] | 10 to 200 | 10 to 200
9 | O=C(NCc1ccc(Cl)cc1)N1CCN(c2ncnc3[nH]ccc23)CC1 [P-0170, N-[(4-chlorophenyl)methyl]-4-(7H-pyrrolo[2,3-d]pyrimidin-4-yl)piperazine-1-carboxamide] | 10 to 200 | 1 to 10
10 | O=C(Nc1ccc(Cl)cc1)N1CCN(c2ncnc3[nH]ccc23)CC1 [P-0171, N-(4-chlorophenyl)-4-(7H-pyrrolo[2,3-d]pyrimidin-4-yl)piperazine-1-carboxamide] | 10 to 200 | 10 to 200
11 | O=C(NC1CCCC1)N1CCN(c2ncnc3[nH]ccc23)CC1 [P-0177, N-cyclopentyl-4-(7H-pyrrolo[2,3-d]pyrimidin-4-yl)piperazine-1-carboxamide] | 0.0001 to 1 | 10 to 200
12 | CCOc1ccc(NC(=O)N2CCN(c3ncnc4[nH]c(C)cc34)CC2)cc1 [P-0181, N-(4-ethoxyphenyl)-4-(6-methyl-7H-pyrrolo[2,3-d]pyrimidin-4-yl)piperazine-1-carboxamide] | 10 to 200 | 10 to 200
13 | O=C(NCc1ccc(F)cc1)N1CCN(c2ncnc3[nH]ccc23)CC1 [P-0182, N-[(4-fluorophenyl)methyl]-4-(7H-pyrrolo[2,3-d]pyrimidin-4-yl)piperazine-1-carboxamide] | 10 to 200 | 10 to 200
14 | O=C(Nc1ccc(F)cc1)N1CCN(c2ncnc3[nH]ccc23)CC1 [P-0183, N-(4-fluorophenyl)-4-(7H-pyrrolo[2,3-d]pyrimidin-4-yl)piperazine-1-carboxamide] | 10 to 200 | 1 to 10
